Reference: EP1383793B1 (priority 2000, dated 2001)
Positions of bridges follow the written chain, without caps; N, C: chain ends. Residues, ends and D or L forms follow the SMILES beside them. No end group written: not given here. *: point of attachment. Biotin = O=C1N[C@H]2[C@H](CS[C@H]2CCCCC(=O)*)N1

target: T1, human insulin receptor (HIR) (Homo sapiens, UniProt P06213); test: 125I-insulin competition binding assay on solubilised purified receptor; details: read-out: HIR affinity
T1 construct: made in house
T1 sequence (P06213 28-758 limits assumed): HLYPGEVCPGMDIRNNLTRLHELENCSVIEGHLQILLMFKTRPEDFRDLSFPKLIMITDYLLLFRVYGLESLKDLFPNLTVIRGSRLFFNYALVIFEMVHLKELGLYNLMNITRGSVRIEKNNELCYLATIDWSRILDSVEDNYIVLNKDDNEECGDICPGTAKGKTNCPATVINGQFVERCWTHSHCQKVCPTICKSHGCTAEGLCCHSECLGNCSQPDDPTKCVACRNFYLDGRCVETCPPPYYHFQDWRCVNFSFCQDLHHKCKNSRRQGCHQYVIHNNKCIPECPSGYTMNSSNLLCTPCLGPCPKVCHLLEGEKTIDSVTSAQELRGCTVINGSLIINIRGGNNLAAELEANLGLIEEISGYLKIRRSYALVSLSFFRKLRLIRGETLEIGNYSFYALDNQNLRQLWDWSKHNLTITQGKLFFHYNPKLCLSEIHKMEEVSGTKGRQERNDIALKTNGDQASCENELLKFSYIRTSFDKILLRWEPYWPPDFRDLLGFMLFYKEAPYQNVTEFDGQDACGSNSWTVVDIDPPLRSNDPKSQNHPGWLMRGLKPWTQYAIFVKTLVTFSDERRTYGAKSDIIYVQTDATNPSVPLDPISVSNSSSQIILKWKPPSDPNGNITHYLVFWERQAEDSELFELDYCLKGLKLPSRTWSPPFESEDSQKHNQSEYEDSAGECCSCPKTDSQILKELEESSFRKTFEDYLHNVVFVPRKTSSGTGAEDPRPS
T1 sequence (P06213 763-1382 limits assumed): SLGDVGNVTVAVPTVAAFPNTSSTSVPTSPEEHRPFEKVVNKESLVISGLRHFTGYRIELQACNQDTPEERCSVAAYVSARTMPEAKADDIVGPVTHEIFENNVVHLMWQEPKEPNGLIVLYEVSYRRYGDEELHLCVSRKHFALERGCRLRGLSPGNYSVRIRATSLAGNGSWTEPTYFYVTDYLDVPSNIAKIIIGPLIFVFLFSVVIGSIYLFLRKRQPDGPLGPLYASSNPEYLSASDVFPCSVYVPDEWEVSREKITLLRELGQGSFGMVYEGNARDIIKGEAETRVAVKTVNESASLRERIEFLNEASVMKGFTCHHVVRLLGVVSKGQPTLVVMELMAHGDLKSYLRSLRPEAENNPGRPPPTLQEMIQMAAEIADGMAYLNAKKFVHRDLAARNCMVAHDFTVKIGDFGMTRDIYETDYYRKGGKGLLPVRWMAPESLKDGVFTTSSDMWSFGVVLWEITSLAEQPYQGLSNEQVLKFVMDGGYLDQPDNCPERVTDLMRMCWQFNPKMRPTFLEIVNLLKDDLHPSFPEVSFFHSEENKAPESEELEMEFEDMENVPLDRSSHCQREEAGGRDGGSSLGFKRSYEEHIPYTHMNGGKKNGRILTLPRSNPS

Compound | Kd [µM]
CC(C)[C@H](NC(=O)[C@H](Cc1ccccc1)NC(=O)[C@H](Cc1c[nH]c2ccccc12)NC(=O)[C@H](CC(=O)O)NC(=O)[C@H](Cc1ccc(O)cc1)NC(=O)[C@H](Cc1ccccc1)NC(=O)[C@H](CC(N)=O)NC(=O)[C@H](CCC(=O)O)NC(=O)[C@H](Cc1c[nH]cn1)NC(=O)[C@@H](N)Cc1ccccc1)C(=O)N[C@@H](CCCNC(=N)N)C(=O)N[C@@H](CCC(N)=O)C(=O)N[C@H](C(=O)N[C@@H](CO)C(=O)N[C@@H](CCCCN)C(=O)N[C@@H](CCCCN)C(=O)N[C@@H](CNC(=O)CON=CCCCCC=NOCC(=O)NC[C@H](NC(=O)[C@H](CCCCN)NC(=O)[C@H](CCCCN)NC(=O)[C@H](CO)NC(=O)[C@@H](NC(=O)[C@H](CCC(N)=O)NC(=O)[C@H](CCCNC(=N)N)NC(=O)[C@@H](NC(=O)[C@H](Cc1ccccc1)NC(=O)[C@H](Cc1c[nH]c2ccccc12)NC(=O)[C@H](CC(=O)O)NC(=O)[C@H](Cc1ccc(O)cc1)NC(=O)[C@H](Cc1ccccc1)NC(=O)[C@H](CC(N)=O)NC(=O)[C@H](CCC(=O)O)NC(=O)[C@H](Cc1c[nH]cn1)NC(=O)[C@@H](N)Cc1ccccc1)C(C)C)C(C)C)C(N)=O)C(N)=O)C(C)C [Clone S169] | 0.58
CC(C)[C@H](NC(=O)[C@H](Cc1ccccc1)NC(=O)[C@H](Cc1c[nH]c2ccccc12)NC(=O)[C@H](CC(=O)O)NC(=O)[C@H](Cc1ccc(O)cc1)NC(=O)[C@H](Cc1ccccc1)NC(=O)[C@H](CC(N)=O)NC(=O)[C@H](CCC(=O)O)NC(=O)[C@H](Cc1c[nH]cn1)NC(=O)[C@H](Cc1ccccc1)NC(=O)CNC(=O)[C@@H](N)CS)C(=O)N[C@@H](CCCNC(=N)N)C(=O)N[C@@H](CCC(N)=O)C(=O)N[C@H](C(=O)N[C@@H](CO)C(=O)N[C@@H](CCCCN)C(=O)N[C@@H](CCCCN)C(N)=O)C(C)C [Clone S171] | 2.9
CC(C)[C@H](NC(=O)[C@H](Cc1ccccc1)NC(=O)[C@H](Cc1c[nH]c2ccccc12)NC(=O)[C@H](CC(=O)O)NC(=O)[C@H](Cc1ccc(O)cc1)NC(=O)[C@H](Cc1ccccc1)NC(=O)[C@H](CC(N)=O)NC(=O)[C@H](CCC(=O)O)NC(=O)[C@H](Cc1c[nH]cn1)NC(=O)[C@@H](N)Cc1ccccc1)C(=O)N[C@@H](CCCNC(=N)N)C(=O)N[C@@H](CCC(N)=O)C(=O)N[C@H](C(=O)N[C@@H](CO)C(=O)N[C@@H](CCCCN)C(=O)N[C@@H](CCCCN)C(=O)N[C@@H](CNC(=O)CON=CCCCCCCC=NOCC(=O)NC[C@H](NC(=O)[C@H](CCCCN)NC(=O)[C@H](CCCCN)NC(=O)[C@H](CO)NC(=O)[C@@H](NC(=O)[C@H](CCC(N)=O)NC(=O)[C@H](CCCNC(=N)N)NC(=O)[C@@H](NC(=O)[C@H](Cc1ccccc1)NC(=O)[C@H](Cc1c[nH]c2ccccc12)NC(=O)[C@H](CC(=O)O)NC(=O)[C@H](Cc1ccc(O)cc1)NC(=O)[C@H](Cc1ccccc1)NC(=O)[C@H](CC(N)=O)NC(=O)[C@H](CCC(=O)O)NC(=O)[C@H](Cc1c[nH]cn1)NC(=O)[C@@H](N)Cc1ccccc1)C(C)C)C(C)C)C(N)=O)C(N)=O)C(C)C [Clone S172] | 4.8
AAAAFYDWFAAAAAKK-NH2 [Clone S168] | 3.8
AFYDWF-NH2 [Clone S182] | > 20
AFYDWFA-NH2 [Clone S181] | > 20
AFYDWFAK-NH2 [Clone S180] | > 20
AFYEWFAKK-NH2 [Clone S214] | > 20
AFYGWFAKK-NH2 [Clone S215] | > 20
AFYKWFAKK-NH2 [Clone S216] | > 20
AHENFYDWFVRQVSKK-NH2 [Clone S113] | 0.59
ALEEEWAWVQVRSIRSGLPL-NH2 [Clone S284] | > 20
APVSTEELRWGALLFGQWAG-NH2 [Clone S283] | > 20
Ac-FYDWF-NH2 [Clone S184] | > 20
DPFYQGLWEWLRESGEE-NH2 [Clone S289] | > 20
FAENFYDWFVRQVSKK-NH2 [Clone S112] | 0.61

Compound | Kd [µM]
FHENFYDAFVRQVSKK [Clone S222] | > 20
FHENFYDWFVAQVSKK-NH2 [Clone S108] | 0.75
FHENFYDWFVRAVSKK-NH2 [Clone S107] | 1
FHENFYDWFVRQASKK-NH2 [Clone S106] | 0.42
FHENFYDWFVRQVAKK-NH2 [Clone S105] | 0.31
FYDWF-NH2 [Clone S165] | > 20
FYDWFKK-NH2 [Clone S166] | > 20
GFREGQRWYWFVAQVT-NH2 [Clone S278] | > 20
HLSVGEELSWWVALLGQWAR-NH2 [Clone S282] | > 20
LDRQFYRYFQDLLVGFM-NH2 [Clone S260] | 2.3
QAPSNFYDWFVREWDEE-NH2 [Clone S287] | 5.9
QSFYDYIEELLGGEWKK-NH2 [Clone S288] | 4.3
RWPNFYGYFESLLTHFS-NH2 [Clone S257] | 14
TGHRLGLDEQFYWWFRDALSG-NH2 [Clone S265] | 0.11
WGRSFYRYFETLLAQGI-NH2 [Clone S261] | > 20

same assay, conditions: read-out: Kd (µM) HIR

Compound | Kd [µM]
CC(C)C[C@H](NC(=O)[C@H](C)NC(=O)[C@H](Cc1c[nH]c2ccccc12)NC(=O)[C@H](CO)NC(=O)[C@H](Cc1c[nH]cn1)NC(=O)CNC(=O)[C@@H](N)CCCCN)C(=O)N[C@H](C(=O)N[C@@H](CCCNC(=N)N)C(=O)N[C@@H](Cc1c[nH]cn1)C(=O)N[C@H](C(=O)N[C@@H](CC(=O)O)C(=O)N[C@@H](CCCNC(=N)N)C(=O)N[C@@H](CC(C)C)C(=O)N[C@@H](Cc1ccccc1)C(=O)N[C@@H](Cc1ccc(O)cc1)C(=O)N[C@@H](CCC(=O)O)C(=O)N[C@@H](Cc1c[nH]c2ccccc12)C(=O)N[C@@H](Cc1ccccc1)C(=O)N[C@@H](CC(=O)O)C(=O)N[C@@H](CC(C)C)C(=O)N[C@@H](CCCCN)C(=O)N[C@@H](CCCCNC(=O)CCCC[C@@H]1SC[C@@H]2NC(=O)N[C@@H]21)C(N)=O)C(C)C)C(C)C [Clone D104] (H-KGHSWALVRHVDRLFYEWFDLKK(Biotin)-NH2) | 20
C[C@@H](O)[C@H](NC(=O)[C@@H]1CCCN1C(=O)[C@H](CCCCN)NC(=O)[C@H](CC(=O)O)NC(=O)[C@H](CCCNC(=N)N)NC(=O)[C@@H](N)CCCCN)C(=O)N[C@@H](CC(=O)O)C(=O)N[C@@H](CCC(N)=O)C(=O)N[C@@H](CCC(=O)O)C(=O)N[C@@H](CCC(=O)O)C(=O)N[C@@H](CCC(N)=O)C(=O)N[C@@H](CC(N)=O)C(=O)N[C@@H](Cc1c[nH]c2ccccc12)C(=O)N[C@@H](CO)C(=O)N[C@@H](Cc1ccccc1)C(=O)N[C@@H](Cc1ccc(O)cc1)C(=O)N[C@@H](CCC(=O)O)C(=O)N[C@@H](Cc1c[nH]c2ccccc12)C(=O)N[C@@H](Cc1ccccc1)C(=O)N[C@@H](CCCNC(=N)N)C(=O)N[C@@H](Cc1c[nH]cn1)C(=O)N[C@@H](CCCCN)C(=O)N[C@@H](CCCCNC(=O)CCCC[C@@H]1SC[C@@H]2NC(=O)N[C@@H]21)C(N)=O [Clone D105] (H-KRDKPTDQEEQNWSFYEWFRHKK(Biotin)-NH2) | 2.8

system: adipocytes; test: 3H-glucose uptake into adipocytes (fat cell assay, FFC); format: cell-based, Mouse; parameters: key to FFC: 0 is no effect; + is agonist; - is antagonist; details: not given

Compound | FFC
Ac-FYDWF-NH2 [Clone S184] | 0
FHENFYDAFVRQVSKK [Clone S222] | 0

target: human IGF-1 receptor (HIGF-1R) (Homo sapiens, UniProt P08069); test: 125I-IGF-1 competition binding assay on solubilised purified receptor; details: not given
Sequence (P08069 31-736 limits assumed): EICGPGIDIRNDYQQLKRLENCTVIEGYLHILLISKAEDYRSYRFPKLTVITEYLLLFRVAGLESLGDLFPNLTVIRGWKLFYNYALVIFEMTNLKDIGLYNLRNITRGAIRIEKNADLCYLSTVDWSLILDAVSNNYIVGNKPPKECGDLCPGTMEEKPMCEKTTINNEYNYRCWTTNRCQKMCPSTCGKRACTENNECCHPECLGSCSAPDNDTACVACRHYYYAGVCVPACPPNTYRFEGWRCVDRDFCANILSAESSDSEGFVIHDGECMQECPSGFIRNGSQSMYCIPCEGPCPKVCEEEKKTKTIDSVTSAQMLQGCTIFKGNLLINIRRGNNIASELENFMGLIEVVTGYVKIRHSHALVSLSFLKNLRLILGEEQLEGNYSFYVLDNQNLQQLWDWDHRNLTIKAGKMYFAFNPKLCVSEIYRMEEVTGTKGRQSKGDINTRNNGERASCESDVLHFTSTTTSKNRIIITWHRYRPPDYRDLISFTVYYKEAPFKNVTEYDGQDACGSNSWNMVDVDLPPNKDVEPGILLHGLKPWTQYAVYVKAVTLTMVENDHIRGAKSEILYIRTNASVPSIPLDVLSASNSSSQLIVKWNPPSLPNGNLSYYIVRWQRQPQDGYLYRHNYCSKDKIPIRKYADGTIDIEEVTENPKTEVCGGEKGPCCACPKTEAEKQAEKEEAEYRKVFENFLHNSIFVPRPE
Sequence (P08069 741-1367 limits assumed): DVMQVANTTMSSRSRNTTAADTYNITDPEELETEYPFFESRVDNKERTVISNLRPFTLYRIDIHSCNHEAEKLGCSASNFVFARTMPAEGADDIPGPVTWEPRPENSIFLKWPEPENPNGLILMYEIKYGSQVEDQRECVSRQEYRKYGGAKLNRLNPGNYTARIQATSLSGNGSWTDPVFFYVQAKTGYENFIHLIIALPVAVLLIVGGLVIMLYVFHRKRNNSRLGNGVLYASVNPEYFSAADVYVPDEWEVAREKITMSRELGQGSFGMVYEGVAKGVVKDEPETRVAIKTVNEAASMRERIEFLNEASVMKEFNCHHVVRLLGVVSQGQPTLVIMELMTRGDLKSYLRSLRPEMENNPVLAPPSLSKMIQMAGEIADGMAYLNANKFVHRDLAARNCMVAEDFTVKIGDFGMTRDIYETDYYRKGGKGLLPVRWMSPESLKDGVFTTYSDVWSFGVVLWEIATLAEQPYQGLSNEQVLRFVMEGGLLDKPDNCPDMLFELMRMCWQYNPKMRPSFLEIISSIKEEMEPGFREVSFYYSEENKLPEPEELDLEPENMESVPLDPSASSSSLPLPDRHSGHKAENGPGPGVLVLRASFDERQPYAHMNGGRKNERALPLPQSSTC

Compound | Kd [µM]
CC[C@H](C)[C@H](NC(=O)[C@@H](N)CCCCN)C(=O)NCC(=O)NCC(=O)N[C@@H](CCC(N)=O)C(=O)NCC(=O)N[C@@H](CCC(N)=O)C(=O)N[C@@H](Cc1c[nH]cn1)C(=O)N[C@@H](CCC(N)=O)C(=O)N[C@@H](CC(=O)O)C(=O)NCC(=O)N[C@@H](CC(N)=O)C(=O)N[C@@H](Cc1ccccc1)C(=O)N[C@@H](Cc1ccc(O)cc1)C(=O)N[C@@H](CC(=O)O)C(=O)N[C@@H](Cc1c[nH]c2ccccc12)C(=O)N[C@@H](Cc1ccccc1)C(=O)N[C@H](C(=O)N[C@@H](CCC(=O)O)C(=O)N[C@@H](C)C(=O)N[C@@H](CC(C)C)C(=O)N[C@@H](C)C(=O)N[C@@H](CCCCN)C(=O)N[C@@H](CCCCNC(=O)CCCC[C@@H]1SC[C@@H]2NC(=O)N[C@@H]21)C(N)=O)C(C)C [Clone D101] (H-KIGGQGQHQDGNFYDWFVEALAKK(Biotin)-NH2) | 13
CC(C)C[C@H](NC(=O)[C@H](C)NC(=O)[C@H](Cc1c[nH]c2ccccc12)NC(=O)[C@H](CO)NC(=O)[C@H](Cc1c[nH]cn1)NC(=O)CNC(=O)[C@@H](N)CCCCN)C(=O)N[C@H](C(=O)N[C@@H](CCCNC(=N)N)C(=O)N[C@@H](Cc1c[nH]cn1)C(=O)N[C@H](C(=O)N[C@@H](CC(=O)O)C(=O)N[C@@H](CCCNC(=N)N)C(=O)N[C@@H](CC(C)C)C(=O)N[C@@H](Cc1ccccc1)C(=O)N[C@@H](Cc1ccc(O)cc1)C(=O)N[C@@H](CCC(=O)O)C(=O)N[C@@H](Cc1c[nH]c2ccccc12)C(=O)N[C@@H](Cc1ccccc1)C(=O)N[C@@H](CC(=O)O)C(=O)N[C@@H](CC(C)C)C(=O)N[C@@H](CCCCN)C(=O)N[C@@H](CCCCNC(=O)CCCC[C@@H]1SC[C@@H]2NC(=O)N[C@@H]21)C(N)=O)C(C)C)C(C)C [Clone D104] (H-KGHSWALVRHVDRLFYEWFDLKK(Biotin)-NH2) | > 20
C[C@@H](O)[C@H](NC(=O)[C@@H]1CCCN1C(=O)[C@H](CCCCN)NC(=O)[C@H](CC(=O)O)NC(=O)[C@H](CCCNC(=N)N)NC(=O)[C@@H](N)CCCCN)C(=O)N[C@@H](CC(=O)O)C(=O)N[C@@H](CCC(N)=O)C(=O)N[C@@H](CCC(=O)O)C(=O)N[C@@H](CCC(=O)O)C(=O)N[C@@H](CCC(N)=O)C(=O)N[C@@H](CC(N)=O)C(=O)N[C@@H](Cc1c[nH]c2ccccc12)C(=O)N[C@@H](CO)C(=O)N[C@@H](Cc1ccccc1)C(=O)N[C@@H](Cc1ccc(O)cc1)C(=O)N[C@@H](CCC(=O)O)C(=O)N[C@@H](Cc1c[nH]c2ccccc12)C(=O)N[C@@H](Cc1ccccc1)C(=O)N[C@@H](CCCNC(=N)N)C(=O)N[C@@H](Cc1c[nH]cn1)C(=O)N[C@@H](CCCCN)C(=O)N[C@@H](CCCCNC(=O)CCCC[C@@H]1SC[C@@H]2NC(=O)N[C@@H]21)C(N)=O [Clone D105] (H-KRDKPTDQEEQNWSFYEWFRHKK(Biotin)-NH2) | 12
CC(C)[C@H](NC(=O)[C@H](Cc1ccccc1)NC(=O)[C@H](Cc1c[nH]c2ccccc12)NC(=O)[C@H](CC(=O)O)NC(=O)[C@H](Cc1ccc(O)cc1)NC(=O)[C@H](Cc1ccccc1)NC(=O)[C@H](CC(N)=O)NC(=O)[C@H](CCC(=O)O)NC(=O)[C@H](Cc1c[nH]cn1)NC(=O)[C@@H](N)Cc1ccccc1)C(=O)N[C@@H](CCCNC(=N)N)C(=O)N[C@@H](CCC(N)=O)C(=O)N[C@H](C(=O)N[C@@H](CO)C(=O)N[C@@H](CCCCN)C(=O)N[C@@H](CCCCN)C(=O)O)C(C)C [Clone D117A] | 5.1

same assay, conditions: Kd HIGF1R / Kd HIR

Compound | Ratio
CC[C@H](C)[C@H](NC(=O)[C@H](CCC(=O)O)NC(=O)[C@@H](N)CCCCN)C(=O)N[C@@H](CCC(=O)O)C(=O)N[C@@H](C)C(=O)N[C@@H](CCC(=O)O)C(=O)N[C@@H](Cc1c[nH]c2ccccc12)C(=O)NCC(=O)N[C@@H](CCCNC(=N)N)C(=O)N[C@H](C(=O)N[C@@H](CCCNC(=N)N)C(=O)N[C@H]1CSSC[C@@H](C(=O)N[C@H](C(=O)NCC(=O)NCC(=O)N[C@@H](CCCCN)C(=O)N[C@@H](CCCCNC(=O)CCCC[C@@H]2SC[C@@H]3NC(=O)N[C@@H]32)C(=O)O)C(C)C)NC(=O)[C@H](CCCNC(=N)N)NC(=O)CNC(=O)[C@H](Cc2ccc(O)cc2)NC(=O)[C@H](C(C)C)NC(=O)[C@H](CC(C)C)NC1=O)C(C)C [Clone D122A] (H-KEIEAEWGRVRCLVYGRCVGGKK(Biotin)-OH; disulfide 12-18 (inferred); N-terminus assumed) | >20
CC(C)C[C@@H]1NC(=O)[C@H](CO)NC(=O)[C@H](C)NC(=O)CNC(=O)[C@H](Cc2c[nH]c3ccccc23)NC(=O)[C@H](Cc2ccccc2)NC(=O)[C@H](CC(C)C)NC(=O)[C@H](CCC(=O)O)NC(=O)[C@H](CCC(=O)O)NC(=O)[C@H](CC(C)C)NC(=O)[C@H](C(C)C)NC(=O)[C@@H](NC(=O)[C@H](CC(C)C)NC(=O)[C@H](Cc2c[nH]cn2)NC(=O)[C@@H](N)CCCCN)CSSC[C@@H](C(=O)N[C@@H](CO)C(=O)NCC(=O)N[C@@H](CCCCN)C(=O)N[C@@H](CCCCNC(=O)CCCC[C@@H]2SC[C@@H]3NC(=O)N[C@@H]32)C(=O)O)NC(=O)[C@H](Cc2ccc(O)cc2)NC(=O)CNC(=O)[C@H](Cc2ccccc2)NC1=O [Clone D124A] (H-KHLCVLEELFWGASLFGYCSGKK(Biotin)-OH; disulfide 4-19 (inferred); N-terminus assumed) | >200
